# In patent US20260042764A1, “COMPOSITIONS AND METHODS FOR INHIBITION OF KRAS” (TheRas, Inc., priority 2022, published 2026):
# pIC50: −log10 of the molar value.
# Biological target: T1, Avi-KRAS G12C (2-169) GTP/RAF1 RBD-3xFLAG (51-131) (Homo sapiens, UniProt P01116, G12C)
# T1 construct: Avi-KRAS G12C (2-169)
# Test: Raf1-KRAS G12C-GTP disruption HTRF assay (Biological Example 3)
# Format: binding
# Details: KRAS G12C, GTP-loaded
# Summary of the method: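 HTRF PPI read-out (ex 320 nm, em 615 nm) after 1 h RT incubation with shaking; data as % activity vs DMSO (100%), IC50 from curve fit. Complex 50 nM, RBD reagent 75 nM; compound 30-0.005 μM, 3-fold.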
# T1 sequence (P01116 2-169 isoform P01116-2 G12C): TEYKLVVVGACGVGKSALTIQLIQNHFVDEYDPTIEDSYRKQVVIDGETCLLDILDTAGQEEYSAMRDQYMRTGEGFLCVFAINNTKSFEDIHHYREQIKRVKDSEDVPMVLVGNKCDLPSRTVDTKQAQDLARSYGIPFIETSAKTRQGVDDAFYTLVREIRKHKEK
row,SMILES,pIC50
1,"C[C@@H]1[C@H](N(C)c2nc(OC[C@@]34CCCN3C[C@H](F)C4)nc3c(F)c(-c4ccc(F)c5sc(N)c(C#N)c45)c(C(F)(F)F)cc23)CCN1C(=O)C1CC1 (atropisomer, axis not shown) [Compound 333]",6.00 to 7.00
2,"CCC(=O)N1CC[C@@H](N(C)c2nc(OC[C@@]34CCCN3C[C@H](F)C4)nc3c(F)c(-c4ccc(F)c5sc(N)c(C#N)c45)c(C(F)(F)F)cc23)[C@H]1C (atropisomer, axis not shown) [Compound 335]",6.00 to 7.00
3,"CCN(c1nc(OC[C@@]23CCCN2C[C@H](F)C3)nc2c(F)c(-c3ccc(F)c4sc(N)c(C#N)c34)c(C(F)(F)F)cc12)[C@H]1CCN(C(=O)[C@H]2CCO2)C1 (atropisomer, axis not shown) [Compound 577]",≥ 7.00
4,"C[C@H](c1cccnc1N)N(C)c1nc(OC[C@@]23CCCN2C[C@H](F)C3)nc2c(F)c(-c3ccc(F)c4sc(N)c(C#N)c34)c(C(F)(F)F)cc12 (atropisomer, axis not shown) [Compound 600]",≥ 7.00
5,"CCN(c1nc(OC[C@@]23CCCN2C[C@H](F)C3)nc2c(F)c(-c3ccc(F)c4sc(N)c(C#N)c34)c(C(F)(F)F)cc12)[C@H]1CCN(C(=O)[C@@H]2CCO2)C1 (atropisomer, axis not shown) [Compound 603]",≥ 7.00
6,"CCN(c1nc(OC[C@@]23CCCN2C[C@H](F)C3)nc2c(F)c(-c3ccc(F)c4sc(N)c(C#N)c34)c(C(F)(F)F)cc12)[C@H]1C[C@@H]2CN(C)C(=O)N2C1 (atropisomer, axis not shown) [Compound 605]",6.00 to 7.00
7,"CCN(c1nc(OC[C@@]23CCCN2C[C@H](F)C3)nc2c(F)c(-c3ccc(F)c4sc(N)c(C#N)c34)c(C(F)(F)F)cc12)[C@H]1CCN(C(=O)N2CC(OC)C2)C1 (atropisomer, axis not shown) [Compound 607]",≥ 7.00
8,"CC(=O)N1CC[C@H](N(c2nc(OC[C@@]34CCCN3C[C@H](F)C4)nc3c(F)c(-c4ccc(F)c5sc(N)c(C#N)c45)c(C(F)(F)F)cc23)C2CC2)C1 (atropisomer, axis not shown) [Compound 608]",6.00 to 7.00
9,"CCN(c1nc(OC[C@@]23CCCN2C[C@H](F)C3)nc2c(F)c(-c3ccc(F)c4sc(N)c(C#N)c34)c(C(F)(F)F)cc12)[C@H]1CCN(C(=O)CC(F)F)C1 (atropisomer, axis not shown) [Compound 611]",≥ 7.00
10,"CCN(c1nc(OC[C@@]23CCCN2C[C@H](F)C3)nc2c(F)c(-c3ccc(F)c4sc(N)c(C#N)c34)c(C(F)(F)F)cc12)[C@H]1CC(=O)N(CC(F)F)C1 (atropisomer, axis not shown) [Compound 613]",≥ 7.00
11,"CCN(c1nc(OC[C@@]23CCCN2C[C@H](F)C3)nc2c(F)c(-c3ccc(F)c4sc(N)c(C#N)c34)c(C(F)(F)F)cc12)[C@H]1CC(=O)N(C)C1 (atropisomer, axis not shown) [Compound 614]",6.00 to 7.00
12,"CCN(c1nc(OC[C@@]23CCCN2C[C@H](F)C3)nc2c(F)c(-c3ccc(F)c4sc(N)c(C#N)c34)c(C(F)(F)F)cc12)[C@H]1CC(=O)N(C2CC2)C1 (atropisomer, axis not shown) [Compound 615]",≥ 7.00
13,"CCN(c1nc(OC[C@@]23CCCN2C[C@H](F)C3)nc2c(F)c(-c3ccc(F)c4sc(N)c(C#N)c34)c(C(F)(F)F)cc12)[C@H]1CCN(C(=O)N2CCN(C(C)=O)CC2)C1 (atropisomer, axis not shown) [Compound 619]",6.00 to 7.00
14,"CC(=O)N1CC[C@H](N(CCF)c2nc(OC[C@@]34CCCN3C[C@H](F)C4)nc3c(F)c(-c4ccc(F)c5sc(N)c(C#N)c45)c(C(F)(F)F)cc23)C1 (atropisomer, axis not shown) [Compound 622]",6.00 to 7.00
15,"CCN1C[C@@H](N(C)c2nc(OC[C@@]34CCCN3C[C@H](F)C4)nc3c(F)c(-c4ccc(F)c5sc(N)c(C#N)c45)c(C(F)(F)F)cc23)CC1=O (atropisomer, axis not shown) [Compound 636]",6.00 to 7.00
16,"CCN(c1nc(OC[C@@]23CCCN2C[C@H](F)C3)nc2c(F)c(-c3ccc(F)c4sc(N)c(C#N)c34)c(C(F)(F)F)cc12)[C@H]1CCN(C(=O)C2CN(C(C)=O)C2)C1 (atropisomer, axis not shown) [Compound 638]",≥ 7.00
17,"C=C(C)C(=O)N1CC[C@H](N(CC)c2nc(OC[C@@]34CCCN3C[C@H](F)C4)nc3c(F)c(-c4ccc(F)c5sc(N)c(C#N)c45)c(C(F)(F)F)cc23)C1 (atropisomer, axis not shown) [Compound 673]",≥ 7.00

row,SMILES,pIC50
1,"CCN(c1nc(OC[C@@]23CCCN2C[C@H](F)C3)nc2c(F)c(-c3ccc(F)c4sc(N)c(C#N)c34)c(C(F)(F)F)cc12)[C@H]1CCN(C(=O)O[C@@H]2CCOC2)C1 (atropisomer, axis not shown) [Compound 683]",≥ 7.00
2,"CCN(c1nc(OC[C@@]23CCCN2C[C@H](F)C3)nc2c(F)c(-c3ccc(F)c4sc(N)c(C#N)c34)c(C(F)(F)F)cc12)[C@H]1CCN(C(=O)[C@@H]2C[C@@H]2C)C1 (atropisomer, axis not shown) [Compound 689]",6.00 to 7.00
3,"CCN(c1nc(OC[C@@]23CCCN2C[C@H](F)C3)nc2c(F)c(-c3ccc(F)c4sc(N)c(C#N)c34)c(C(F)(F)F)cc12)[C@@H]1CC(=O)N(C2CC2)C1 (atropisomer, axis not shown) [Compound 703]",5.00 to 6.00
4,"CCN(c1nc(OC[C@@]23CCCN2C[C@H](F)C3)nc2c(F)c(-c3ccc(F)c4sc(N)c(C#N)c34)c(C(F)(F)F)cc12)[C@H]1CCN(C(=O)c2ccns2)C1 (atropisomer, axis not shown) [Compound 726]",6.00 to 7.00
5,"CCN(c1nc(OC[C@@]23CCCN2C[C@H](F)C3)nc2c(F)c(-c3ccc(F)c4sc(N)c(C#N)c34)c(C(F)(F)F)cc12)[C@H]1CCN(C(=O)N(C)C)[C@@H]1C (atropisomer, axis not shown) [Compound 749]",≥ 7.00
6,"CCN(c1nc(OC[C@@]23CCCN2C[C@H](F)C3)nc2c(F)c(-c3ccc(F)c4sc(N)c(C#N)c34)c(C(F)(F)F)cc12)[C@H]1C[C@@H](C)N(C(=O)[C@H]2CCO2)C1 (atropisomer, axis not shown) [Compound 752]",6.00 to 7.00
7,"CCN(c1nc(OC[C@@]23CCCN2C[C@H](F)C3)nc2c(F)c(-c3ccc(F)c4sc(N)c(C#N)c34)c(C(F)(F)F)cc12)[C@H]1C[C@H]2CCC(=O)N2C1 (atropisomer, axis not shown; (aR)) [Compound 573, 2-amino-4-((S)-4-(ethyl((2S,7aR)-5-oxohexahydro-1H-pyrrolizin-2-yl)amino)-8-fluoro-2-(((2R,7aS)-2-fluorotetrahydro-1H-pyrrolizin-7a(5H)-yl)methoxy)-6-(trifluoromethyl)quinazolin-7-yl)-7-fluorobenzo[b]thiophene-3-carbonitrile]",≥ 7.00
8,[2H]C1([2H])O[C@@H]2C[C@H]1N(c1nc(OC[C@@]34CCCN3C[C@H](F)C4)nc3c(F)c(-c4ccc(F)c5sc(N)c(C#N)c45)c(C(F)(F)F)cc13)C2 [Compound 371],5.00 to 6.00
9,CCN(c1nc(OC[C@@]23CCCN2C[C@H](F)C3)nc2c(F)c(-c3ccc(F)c4sc(N)c(C#N)c34)c(C(F)(F)F)cc12)[C@H]1CCN(C(=O)OC)C1 [Compound 394],6.00 to 7.00
10,CCN(c1nc(OC[C@@]23CCCN2C[C@H](F)C3)nc2c(F)c(-c3ccc(F)c4sc(N)c(C#N)c34)c(C(F)(F)F)cc12)[C@H]1CCN(C(=O)C2CC2(F)F)C1 (stereo partly shown) [Compound 581],≥ 7.00
11,N#Cc1c(N)sc2c(F)ccc(-c3c(C(F)(F)F)cc4c(N5CCn6nc(C(=O)N7CCOCC7)cc6C5)nc(OCC56CCCN5CC(F)C6)nc4c3F)c12 (stereo not shown) [Compound 646],6.00 to 7.00
12,CCN(c1nc(OC[C@@]23CCCN2C[C@H](F)C3)nc2c(F)c(-c3ccc(F)c4sc(N)c(C#N)c34)c(C(F)(F)F)cc12)[C@H]1CCN(C(=O)C2C[C@@H]2F)C1 (stereo partly shown) [Compound 692],≥ 7.00
13,N#Cc1c(N)sc2c(F)ccc(-c3c(C(F)(F)F)cc4c(N(C5CC5)[C@H]5CCS(=O)(=O)C5)nc(OC[C@@]56CCCN5C[C@H](F)C6)nc4c3F)c12 [Compound 702],< 5.00
14,CCN(c1nc(OC[C@]23CCCN2C[C@H](F)C3)nc2c(F)c(-c3ccc(F)c4sc(N)c(C#N)c34)c(C(F)(F)F)cc12)[C@H]1CCN(C(=O)C(C)C)C1 [Compound 705],6.00 to 7.00
15,CCN(c1nc(OC[C@@H]2C[C@@H](OC)CN2C)nc2c(F)c(-c3ccc(F)c4sc(N)c(C#N)c34)c(C(F)(F)F)cc12)[C@H]1CCN(C(=O)C(C)C)C1 [Compound 706],5.00 to 6.00
16,Cc1c(C(=O)N2CCOCC2)nn2c1CN(c1nc(OCC34CCCN3CC(F)C4)nc3c(F)c(-c4ccc(F)c5sc(N)c(C#N)c45)c(C(F)(F)F)cc13)CC2 (stereo not shown) [Compound 741],6.00 to 7.00
17,Cc1c(C(=O)N2CCCC2)nn2c1CN(c1nc(OCC34CCCN3CC(F)C4)nc3c(F)c(-c4ccc(F)c5sc(N)c(C#N)c45)c(C(F)(F)F)cc13)CC2 (stereo not shown) [Compound 744],6.00 to 7.00
